# Experimental data: US20100222360A1, “Treatment of Malignant Peripheral Nerve Sheath Tumors” (priority 2008, published 2010)
# Test system: MPNST cell line, YST-1
# Assay: Proliferation of the MPNST cell line YST-1
# Type: cell-based
smiles,measurement,setting,value
O=C1c2ccccc2-c2n[nH]c3cccc1c23 [SP600125],effect on the suppression of cell proliferation effected by Imatinib,"SP600125 in combination with Imatinib, YST-1 cells",reinforces the suppression of cell proliferation
same,suppression of proliferation of the MPNST cell line YST-1,"single agent, concentration-dependent manner",suppresses the proliferation
